Source: ChEMBL document CHEMBL1914340, “Effect of the leukotriene A4 hydrolase aminopeptidase augmentor 4-methoxydiphenylmethane in a pre-clinical model of pulmonary emphysema” (Bioorg Med Chem Lett, 2011)
Active and inactive are the calls of the source. No cut-off for these calls is given here.

Key:
[1] = Toxicity in mouse; assay type: organism-based; details: in vivo
[2] = Chemical stability of the compound assessed as degradation at pH 6.8; assay type: physicochemical; details: buffer
Mus musculus [3] = test: Effect on intransal elastase-induced LTB4 level in broncho alveolar lavage fluid in ip dosed mouse by ELISA (reference value: 93.1 +/- 26.1 pg/mL); assay type: functional, organism-based
Mus musculus [4] = test: Antiemphysema activity in wild type mouse assessed as reduction in intranasal elastase-induced lung compliance at 30 mg/kg, ip qd for 28 days by flexivent relative to vehicle-treated control; assay type: functional, organism-based; set-up: dose 30 mg/kg
[5] = molecular target: T1, Leukotriene A-4 hydrolase (Homo sapiens) (UniProt P09960); test: Activation of aminopeptidase activity of LTA4H assessed as compound concentration required to 50% activation using L-alanine-p-nitroanilide as substrate by spectrophotometry
T1 sequence (whole entry): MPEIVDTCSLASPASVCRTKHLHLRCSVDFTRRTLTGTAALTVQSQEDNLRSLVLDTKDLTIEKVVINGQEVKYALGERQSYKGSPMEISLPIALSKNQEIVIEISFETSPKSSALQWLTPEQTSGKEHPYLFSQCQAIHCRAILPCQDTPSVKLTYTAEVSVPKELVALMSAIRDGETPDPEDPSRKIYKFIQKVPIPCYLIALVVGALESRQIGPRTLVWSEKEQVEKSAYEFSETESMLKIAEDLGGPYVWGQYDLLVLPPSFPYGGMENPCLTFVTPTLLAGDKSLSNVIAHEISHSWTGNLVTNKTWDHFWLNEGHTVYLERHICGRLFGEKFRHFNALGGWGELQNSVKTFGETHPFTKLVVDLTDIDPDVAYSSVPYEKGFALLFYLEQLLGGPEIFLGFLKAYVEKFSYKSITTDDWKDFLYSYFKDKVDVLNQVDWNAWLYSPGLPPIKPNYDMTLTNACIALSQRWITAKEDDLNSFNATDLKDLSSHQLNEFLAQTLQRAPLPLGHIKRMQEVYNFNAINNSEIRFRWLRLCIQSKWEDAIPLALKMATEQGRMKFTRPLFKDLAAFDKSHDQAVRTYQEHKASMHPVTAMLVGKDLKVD

Mus musculus [6] = test: Antiemphysema activity in wild type mouse assessed as reduction in intranasal elastase-induced lung volume at 30 mg/kg, ip qd for 28 days measured after 18 hrs of post mortem by volume displacement technique relative to vehicle-treated control; assay type: functional, organism-based; set-up: dose 30 mg/kg
Mus musculus [7] = test: Antiemphysema activity in wild type mouse assessed as shorter chord length at 30 mg/kg, ip qd for 28 days measured after 18 hrs of post mortem by volume displacement technique relative to vehicle-treated control; assay type: functional, organism-based; set-up: dose 30 mg/kg

| Compound | MTD [1] | Stability [2] | Activity (Mus musculus [3]) | Activity (Mus musculus [4]) | Activity [5] | Activity (Mus musculus [6]) | Activity (Mus musculus [7]) |
| --- | --- | --- | --- | --- | --- | --- | --- |
| COc1ccc(Oc2ccccc2)cc1 | 30 mg/kg | Unstable | – | – | – | – | – |
| COc1ccc(Cc2ccccc2)cc1 | – | Stable | inactive | Active | 50 µM | Active | Active |
